Assay results: US9701644B2, “Salt of nitrogen-containing heterocyclic compound or crystal thereof, pharmaceutical composition, and FLT3 inhibitor” (FUJIFILM Corporation, priority 2013, dated 2017)
In brackets after ≈: the same amount, converted by molar mass. Where a name gives a salt, the structure may show the parent alone.

Tests used:
MV4-11 cells = test: Leukemic cell growth inhibition test (MV4-11); format: cell-based; details: MV4-11, 72 hours culture, CellTiter-Glo
Experimental: (§1) A leukemic cell growth inhibition test was performed by using the leukemic cell strains MV4-11 (ATCC Number, CRL-9591) and MOLM-13 (DSMZ Number, ACC554).
(§2) The leukemic cell growth inhibition test was performed by the method described below.
(§3) For the purpose of measuring growth inhibition with a test compound, the total cell count was quantified on the basis of the total cellular ATP concentration using the CellTitet-Glo (PerkinElmer) reagent that enables quantification of ATP concentration based on the luciferin-luciferase reaction. The MOLM-13 or MV4-11 cells were added to the RPMI medium containing penicillin (100 units/mL), streptomycin (100 μg/mL), and 10% FBS at a density of 2×10^5 cells/ml, and 50 μL (10,000 cells) of the mixture was inoculated to each well of a 96-well plate (Corning).
(§4) A serially diluted solution of a test compound or 0.1% DMSO (solvent control) in a volume of 50 μL was added to the cells, and then the cells were cultured for 72 hours under the standard cell proliferation conditions (37° C., 5% CO2) to allow proliferation of the cells. In order to measure the total cell proliferation, equal volume of the CellTitet-Glo reaction mixture was added to each well in accordance with the instructions attached to CellTitet-Glo, and luminescence count was quantified (relative light unit, RLU).
(§5) The RLU signal observed for the DMSO solvent control after 72 hours of culture was defined as a signal indicating 0% inhibition, and the GI50 value for the growth inhibition corresponds to a concentration of a compound that provides 50% inhibition of the total cell proliferation observed in the DMSO solvent control. Each data point was obtained from samples prepared in duplicate. The GI50 values were calculated by the non-linear regression fitting (Fit Model (205)) according to a sigmoid dose-reaction equation using the XLfit software.

MOLM-13 cells = test: Leukemic cell growth inhibition test (MOLM-13); format: cell-based; details: MOLM-13, 72 hours culture, CellTiter-Glo
Experimental: as §1, §2, §3, §4, §5

Solubility test in water = format: physicochemical; details: room temperature, stirred 24 hours
Experimental: The compounds of Examples 1 and 3 were chosen as test compounds.
The compound A was chosen as a comparative compound.
The test compounds and the comparative compound were each added to water, and each mixture was stirred at room temperature for 24 hours. The insoluble matter was removed by filtration using a membrane filter (0.2 μm). The filtrate was analyzed by HPLC to obtain solubility.

[1] = Storage stability test (1), open glass bottle, 2 weeks; format: physicochemical; details: for storage stability / Moisture content / Purity: open glass bottle; for storage stability / change of the purity and moisture content after storage: in words; for change of the purity and moisture content after storage: storage over 2 weeks
Experimental: (§6) The purities are represented in terms of area % measured by high performance liquid chromatography (HPLC). The HPLC measurement was performed by using Prominence (Shimadzu) under the following conditions.
Crystals of the compounds of Examples 1 and 3 were chosen as test substances.
Each test substance (200 mg) was put into a glass bottle of an open state, and stored for 2 weeks under the storage condition 1 (25° C., 75% relative humidity), or the storage condition 2 (40° C., 75% relative humidity). Purity and moisture content of the test substance were measured before the start of the test and after the end of the test.

[2] = Storage stability test (2), double plastic bag, 4 weeks; format: physicochemical
Experimental: as §6
The crystals of the compound of Example 1 were chosen as test substance.
The test substance (200 mg) was put into double plastic bag, and the opening was tied up. The bag was stored for 4 weeks under the storage condition 1 (25° C., 75% relative humidity), or the storage condition 2 (40° C., 75% relative humidity). Purity and moisture content of the test substance were measured before the start of the test and after the end of the test.

[3] = storage condition 1 (25° C., 75% relative humidity), 2 weeks
[4] = storage condition 2 (40° C., 75% relative humidity), 2 weeks
[5] = storage condition 1 (25° C., 75% relative humidity), 4 weeks
[6] = storage condition 2 (40° C., 75% relative humidity), 4 weeks

| Compound | GI50 (MV4-11 cells; Homo sapiens, MV4-11, 72 h) [nM] | GI50 (MOLM-13 cells; Homo sapiens, MOLM-13, 72 h) [nM] | Solubility (Solubility test in water) [µg/mL] | storage stability ([1]; 2 weeks) | Moisture content ([1]; before start of test) [%] | Purity ([1]; before start of test) [%] | Moisture content [1, 3] [%] | Purity [1, 3] [%] | Moisture content [1, 4] [%] | Purity [1, 4] [%] | change of the purity and moisture content after storage [1] | Moisture content ([2]; before start of test) [%] | Purity ([2]; before start of test) [%] | Moisture content [2, 5] [%] | Purity [2, 5] [%] | Moisture content [2, 6] [%] | Purity [2, 6] [%] | GI50 (MV4-11 cells) [nM] | GI50 (MOLM-13 cells) [nM] |
| --- | --- | --- | --- | --- | --- | --- | --- | --- | --- | --- | --- | --- | --- | --- | --- | --- | --- | --- | --- |
| CCCNc1nc(Nc2ccc(C#N)cc2)ncc1C#CCCCNC(=O)[C@H](C)N(C)C(=O)/C=C/CN(C)C [Example 1, succinate of the compound A] | 0.52 | 1.47 | 70000 | superior | 0.5 | 99.6 | 0.2 | 99.6 | 0.2 | 99.6 | little change | 0.2 | 99.4 | 0.2 | 99.4 | 0.2 | 99.4 |  |  |
| CCCNc1nc(Nc2ccc(C#N)cc2)ncc1C#CCCCNC(=O)[C@H](C)N(C)C(=O)/C=C/CN(C)C [Example 2, succinate of the compound A] |  |  |  |  | 1.7 | 99.7 | 3.2 | 99.6 | 2.1 | 99.6 |  |  |  |  |  |  |  | 0.6 | 1.5 |
| CCCNc1nc(Nc2ccc(C#N)cc2)ncc1C#CCCCNC(=O)[C@H](C)N(C)C(=O)/C=C/CN(C)C [Example 3, fumarate of the compound A] |  |  | 890 | superior |  |  |  |  |  |  | little change |  |  |  |  |  |  | 0.6 | 1.6 |
| CCCNc1nc(Nc2ccc(C#N)cc2)ncc1C#CCCCNC(=O)[C@H](C)N(C)C(=O)/C=C/CN(C)C [Compound A, (S,E)-N-(1-((5-(2-((4-cyanophenyl)amino)-4-(propylamino)pyrimidin-5-yl)pent-4-yn-1-yl)amino)-1-oxopropan-2-yl)-4-(dimethylamino)-N-methylbut-2-enamide] |  |  | 20 (≈ 37.7 µM) |  |  |  |  |  |  |  |  |  |  |  |  |  |  |  |  |
